Data on 21 compounds can be found in patent US4117230A, “Hydantoin derivatives as therapeutic agents” (priority 1977, dated 1978).

One test deals with T1, aldose reductase (Bos taurus, UniProt P16116).
T1 construct: partially purified aldose reductose enzyme obtained from calf lens; from tissue; host or cells: calf lens
Description: inhibition of aldose reductase enzyme activity (procedure of S. Hayman et al., modified by K. Sestanj et al.). The conditions noted are these: calf lens enzyme, read-out: Percent inhibition of aldose reductase enzyme activity; for inhibition at 100 µM: 10^-4 M; for inhibition at 10 µM: 10^-5 M; for inhibition at 1 µM: 10^-6 M; for inhibition at 0.1 µM: 10^-7 M. The class given is biochemical, calf. The protocol: (§1) The activity of the compounds of the present invention, as agents for the control of chronic diabetic complications, is determined by their ability to successfully pass one or more of the following standard biological and/or pharmacological tests, viz., (1) measuring their ability to inhibit the enzyme activity of isolated aldose reductase; (2) measuring their ability to reduce or inhibit sorbitol accumulation in the sciatic nerve of acutely sterptozotocinized (i.e., diabetic) rats; (3) measuring their ability to reverse already-elevated sorbitol levels in the sciatic nerve and lens of chronic streptozotocin-induced diabetic rats; (4) measuring their ability to prevent or inhibit galactitol formation in the lens of acutely galactosemic rats, and (5) measuring their ability to delay cataract formation and reduce the severity of lens opacities in chronic galactosemic rats.
Hayman et al., as described in the Journal of Biological Chemistry, Vol. 240, p. […] In every case, the substrate employed ws partially purified aldose reductose enzyme obtained from calf lens.

For test [1], the system named is sorbitol accumulation in the sciatic nerve of streptozotocinized (i.e., diabetic) rats. Description: inhibition of sorbitol accumulation in the sciatic nerve of acutely streptozotocinized (diabetic) rats. In kind it is in vivo, rat. The conditions noted are these: measured at 27 h, vs untreated. The protocol:
as §1
The following spiro-hydantoin compounds of Preparation C and Examples I-V, VII-IX, XI-XVII, XIX-XXV, XXVII and XXX-XXXIII, respectively, were tested for their ability to reduce or inhibit sorbitol accumulation in the sciatic nerve of streptozotocinized (i.e., diabetic) rats by the procedure essentially described in U.S. Pat. No. 3,821,383. In the present study, the amount of sorbitol accumulation in the sciatic nerves was measured 27 hours after induction of diabetes. The compounds were administered orally at the dose levels indicated at 4, 8 nd 24 hours following the administration of streptozotocin. The results obtained in this manner are presented below in terms of percent inhibition (%) afforded by the test compound as compared to the case where no compound was administered (i.e., the untreated animal where sorbitol levels normally rise from approximately […]. tissue to as high as […]. tissue in the 27-hour test period): […]

The mark [2] stands for this setting: 5.0 mg./kg. orally at 4, 8 and 24 h after streptozotocin.
The mark [3] stands for this setting: 1.5 mg./kg. orally at 4, 8 and 24 h after streptozotocin.
The mark [4] stands for this setting: 10 mg./kg. orally at 4, 8 and 24 h after streptozotocin.
Setting [5] is: 2.5 mg./kg. orally at 4, 8 and 24 h after streptozotocin.

With `O=C1NC(=O)C2(CCc3cc4c(cc32)OCO4)N1` (stereo not shown) [Ex. V, 5',6'-methylenedioxy-spiro-[imidazolidine-4,1'-indan]-2,5-dione], at aldose reductase, the inhibition (in general, the relative decrease from the control value, in per cent) at 100 µM is 92%; the inhibition at 10 µM came to 67%; the inhibition at 1 µM turned out to be 25%; the inhibition at 0.1 µM came out at 3%. Besides, in test [1] (setting [2]), the “Percent inhibition of sorbitol accumulation in the sciatic nerve” value (from here on “Percent inhibition”) was 9%.
As for `COc1ccc2c(c1)CCCC21NC(=O)NC1=O` (stereo not shown) [Ex. XVIII, 3',4'-dihydro-6'-methoxy-spiro[imidazolidine-4,1'(2'H)naphthalene]-2,5-dione], at aldose reductase, the inhibition at 100 µM is 72%, the inhibition at 10 µM was 38%, the inhibition at 1 µM amounted to 15% and the inhibition at 0.1 µM came to 7%.
Take `O=C1NC(=O)C2(CCS(=O)(=O)c3ccccc32)N1` (stereo not shown) [Ex. XXXII, spiro-[imidazolidine-4,4'-thiochroman]-2,5-dione-1',1'-dioxide]: at aldose reductase, the inhibition at 100 µM came to 94%, the inhibition at 10 µM was found to be 69%, the inhibition at 1 µM came out at 31% and the inhibition at 0.1 µM came out at 2%.
Regarding `O=C1NC(=O)C2(CC[S+]([O-])c3ccc(F)cc32)N1` (stereo not shown) [Ex. XXX, 6'-fluoro-spiro-[imidazolidine-4,4'-thiochroman]-2,5-dione-1'-oxide], on aldose reductase, the inhibition at 100 µM worked out at 87%, the inhibition at 10 µM was 80%, the inhibition at 1 µM was 64% and the inhibition at 0.1 µM came out at 16%. The “Percent inhibition” value in test [1] (setting [3]) is recorded as 35%.
For `COc1ccc2c(c1)C1(CCC2)NC(=O)NC1=O` (stereo not shown) [Ex. XVI, 3',4'-dihydro-7'-methoxy-spiro[imidazolidine-4,1'(2'H)naphthalene]-2,5-dione], at aldose reductase, the inhibition at 100 µM was 54% and the inhibition at 1 µM was found to be 23%. In addition, the “Percent inhibition” value in test [1] (setting [2]) is recorded as 25%. The “Percent inhibition” value in test [1] (setting [4]) is given as 44%.
As to `O=C1NC(=O)C2(CCS(=O)(=O)c3ccc(F)cc32)N1` (stereo not shown) [Ex. XXXI, 6'-fluoro-spiro-[imidazolidine-4,4'-thiochroman]-2,5-dione-1',1'-dioxide], at aldose reductase, the inhibition at 100 µM turned out to be 85%, the inhibition at 10 µM was found to be 74%, the inhibition at 1 µM was determined as 74% and the inhibition at 0.1 µM worked out at 28%. Moreover, the “Percent inhibition” value in test [1] (setting [5]) is recorded as 47%. For the same compound, in test [1] (setting [2]), the “Percent inhibition” value is reported as 68%.
`COc1cccc2c1CCCC21NC(=O)NC1=O` (stereo not shown) [Ex. XXVI, 3',4'-dihydro-5'-methoxy-spiro[imidazolidine-4,1'(2'H)-naphthalene]-2,5-dione]: at aldose reductase, the inhibition at 100 µM was 72%, the inhibition at 10 µM was found to be 49%, the inhibition at 1 µM amounted to 5% and the inhibition at 0.1 µM was found to be 0%.
With `O=C1NC(=O)C2(CCc3ccc(F)cc32)N1` (stereo not shown) [Ex. III, 6'-fluoro-spiro-[imidazolidine-4,1'-indan]-2,5-dione], on aldose reductase, the inhibition at 100 µM was 74%, the inhibition at 10 µM came out at 12%, the inhibition at 1 µM is 22% and the inhibition at 0.1 µM is -1%. The “Percent inhibition” value in test [1] (setting [2]) is 45%.
As to `O=C1NC(=O)C2(CS(=O)(=O)c3ccccc32)N1` (stereo not shown) [Ex. XXXIII, spiro-[imidazolidine-4,3'-thioindan]-2,5-dione-1,1'-dioxide], at aldose reductase, the inhibition at 100 µM stood at 81%, the inhibition at 10 µM was found to be 64%, the inhibition at 1 µM was 22% and the inhibition at 0.1 µM stood at 4%. Besides, the “Percent inhibition” value in test [1] (setting [2]) is reported as 5%.
Regarding `COc1ccc2c(c1)CCC21NC(=O)NC1=O` (stereo not shown) [Ex. VI, 5'-methoxy-spiro-[imidazolidine-4,1'-indan]-2,5-dione], on aldose reductase, the inhibition at 100 µM stood at 82%, the inhibition at 10 µM was 60%, the inhibition at 1 µM came out at 13% and the inhibition at 0.1 µM is -10%.
In the case of `O=C1NC(=O)C2(CCSc3c(Cl)cccc32)N1` (stereo not shown) [Ex. XIII, 8'-chloro-spiro-[imidazolidine-4,4'-thiochroman]-2,5-dione], on aldose reductase, the inhibition at 100 µM is 60%. For the same compound, in test [1] (setting [3]), the “Percent inhibition” value is 5%.
Turning to `O=C1NC(=O)C2(CCOc3ccccc32)N1` (stereo not shown) [Ex. XX, spiro[chroman-4,4'-imidazolidine]-2',5'-dione], at aldose reductase, the inhibition at 100 µM turned out to be 73%, the inhibition at 10 µM was determined as 64%, the inhibition at 1 µM was -9% and the inhibition at 0.1 µM is -16%. Further, the “Percent inhibition” value in test [1] (setting [5]) is recorded as 34%. Besides, in test [1] (setting [2]), the “Percent inhibition” value amounted to 58%. For the same compound, in test [1] (setting [4]), the “Percent inhibition” value amounted to 77%.
On to `O=C1NC(=O)C2(CCCc3ncccc32)N1` (stereo not shown) [Ex. XV, 7',8'-dihydro-spiro[imidazolidine-4,5'(6H)-quinoline]-2,5-dione], for which, on aldose reductase, the inhibition at 100 µM was 83%, the inhibition at 10 µM amounted to 54%, the inhibition at 1 µM worked out at 9% and the inhibition at 0.1 µM is -2%. The “Percent inhibition” value in test [1] (setting [2]) worked out at 5%. In test [1] (setting [4]), the “Percent inhibition” value is reported as 52%.
As to `COc1cc2c(cc1OC)C1(CCC2)NC(=O)NC1=O` (stereo not shown) [Ex. XVII, 3',4'-dihydro-6',7'-dimethoxy-spiro[imidazolidine-4,1'-(2H)naphthalene]-2,5-dione], on aldose reductase, the inhibition at 100 µM came out at 82%, the inhibition at 10 µM is 26%, the inhibition at 1 µM was 8% and the inhibition at 0.1 µM came to 16%.
Take `O=C1NC(=O)C2(CCc3ccc(O)cc32)N1` (stereo not shown) [Ex. XIX, 6'-hydroxy-spiro-[imidazolidine-4,1'indan]-2,5-dione]: at aldose reductase, the inhibition at 100 µM turned out to be 93%, the inhibition at 10 µM came out at 31%, the inhibition at 1 µM was determined as 11% and the inhibition at 0.1 µM was -30%. In addition, in test [1] (setting [4]), the “Percent inhibition” value was 15%.
As for `COc1cc2c(cc1OC)C1(CC2)NC(=O)NC1=O` (stereo not shown) [Ex. IV, 5',6'-dimethoxy-spiro-[imidazolidine-4,1'-indan]-2,5-dione], at aldose reductase, the inhibition at 100 µM was 90%, the inhibition at 10 µM was determined as 81%, the inhibition at 1 µM came out at 35% and the inhibition at 0.1 µM came out at 9%. Besides, the “Percent inhibition” value in test [1] (setting [2]) came out at 33%. Further, the “Percent inhibition” value in test [1] (setting [4]) is on record as 49%.
For `O=C1NC(=O)C2(CCSc3ccc(F)cc32)N1` (stereo not shown) [Ex. XII, 6'-fluoro-spiro-[imidazolidine-4,4'-thiochroman]-2,5-dione], at aldose reductase, the inhibition at 100 µM was found to be 81%, the inhibition at 10 µM was 77%, the inhibition at 1 µM was found to be 66% and the inhibition at 0.1 µM is 38%. Moreover, in test [1] (0.75 mg./kg. orally at 4, 8 and 24 h after streptozotocin), the “Percent inhibition” value is recorded as 13%. Also, the “Percent inhibition” value in test [1] (setting [3]) amounted to 45%. In addition, in test [1] (setting [5]), the “Percent inhibition” value amounted to 74%.
For `COc1ccc2c(c1)C1(CCO2)NC(=O)NC1=O` (stereo not shown) [Ex. XXI, 6-methoxy-spiro[chroman-4,4'-imidazolidine]-2',5'-dione], on aldose reductase, the inhibition at 100 µM was 100%, the inhibition at 10 µM worked out at 92%, the inhibition at 1 µM is 35% and the inhibition at 0.1 µM came to 7%. The “Percent inhibition” value in test [1] (setting [5]) was found to be 24%.
Turning to `Cc1cc(C)c2c(c1)C1(CCO2)NC(=O)NC1=O` (stereo not shown) [Ex. XXXIV, 6,8-dimethyl-spiro-[chroman-4,4'-imidazolidine]-2',5'-dione], on aldose reductase, the inhibition at 100 µM stood at 71%, the inhibition at 10 µM came out at 84%, the inhibition at 1 µM came to 54% and the inhibition at 0.1 µM came out at 17%.
For `O=C1NC(=O)C2(CCSc3ccc(Br)cc32)N1` (stereo not shown) [Ex. X, 6-bromo-spiro-[imidazolidine-4,4'-thiochroman]-2,5-dione], the inhibition at 100 µM on aldose reductase is 32%.
On to `O=C1NC(=O)C2(CCOc3ccc(Br)cc32)N1` (stereo not shown) [Ex. XXVIII, 6-bromo-spiro-[chroman-4,4'-imidazolidine]-2',5'-dione], for which, on aldose reductase, the inhibition at 100 µM was determined as 74%.
